Source: US20020003114A1, “Partially halogenated hydantoins in papermaking applications” (Lonza Inc.;, priority 2000, published 2002)

Columns and labels:
[1] = Oxidant (halogen) loss rate with performance additive C-PAM; assay type: physicochemical
Procedure: (§1) 125 mL solutions containing 2.0 ppm (expressed total halogen as Cl2) of Cl0.9-5,5-dimethyl hydantoin, Dantochlor®, sodium hypochlorite, Dantobrom®, or sodium hypobromite and a performance additive described in Table 4 were prepared by mixing the appropriate amounts of the ingredients in tap water at a temperature of about 37° C. and a pH of about 8.
(§2) The degeneration of the performance additives tested was determined by measuring the residual oxidant (halogen) concentrations of the solutions over time as follows. The tests were performed in a water bath maintained at 37° C. and an orbital shaker in order to keep the performance additives dispersed in the solutions. Aliquots were taken at regular intervals over a 30 minute period and measured for residual slimicide concentrations using the standard diethyl-p-phenylene diamine (DPD) methodology described in Palin, A. T., Chemistry and Control of Modem Chlorination, La Motte Chemical (1973). The oxidant (halogen) loss rates were determined from first order linear regression plots of the residual oxidant (halogen) concentrations over time.
(§3) The ratio of bactericidal efficacy to oxidant loss rate was calculated for the slimicides and performance additives in Table 7 based on the results in Tables 5 and 6 above. […]

[2] = test system: organisms native to the white water; assay: Bactericidal efficacy of slimicides in paper mill white water; assay type: cell-based; settings: Table 8
Procedure: White water was obtained from a Northeastern paperboard mill. The pH of the white water was about 6.5-7.5. The consistency of the white water was typically 0.1-0.2%. The furnish pulp was approximately 50% mixed, 15% chip, 15% corrugated, and 15% newspaper. The white water contained the sizing alkyl ketene dimer (AKD). The test organisms were those native to the white water.
The slimicide was added at a concentration of from about 15 to about 20 ppm (expressed as Cl2) to the white water. The white water was then incubated for 3 hours at 37° C. The test conditions were based on ASTM E 600-91 and ASTM E 1839-96. Bacterial counts were performed using tryptone glucose extract agar by known pour plate techniques. DIFCO D/E Neutralizing Broth was used as the first serial dilution tube for biocide neutralization.
The bactericidal efficacy of each slimicide in Table 6 was determined according to the procedure described in Example 2, except the incubation time was 30 minutes instead of 3 hours and the initial concentration of slimicide was about 20 ppm (expressed as Cl2).
The bactericidal efficacy rate of each slimicide was determined by dividing the observed log reduction in the bacterial count by the 30 minute contact time. The bactericidal efficacy rate at 2 ppm of slimicide (expressed as C2) was extrapolated from the results for 20 ppm of slimicide (expressed as Cl2) by assuming a first order behavior. […]
The bactericidal efficacy and bacterial efficacy rate of each slimicide in Table 8 below was determined according to the procedure described in Example 5.
The bactericidal efficacy of each slimicide in Table 10 was determined according to the procedure described in Example 2, except the initial concentration of slimicide was about 10 ppm (expressed as Cl2).
The microbiocidal efficacy rate of each slimicide was determined by dividing the observed log reduction in the bacterial count by the 180 minute contact time. The efficacy rate at 2 ppm of slimicide (expressed as Cl2) was extrapolated from the results for 10 ppm of slimicide (expressed as Cl2) by assuming a first order behavior. […]

[3] = Oxidant (halogen) loss rate with performance additive PAE; assay type: physicochemical
Procedure: as §1, §2, §3

[4] = Oxidant (halogen) loss rate with performance additive AKD; assay type: physicochemical
Procedure: as §1, §2, §3

[5] = Oxidant (halogen) loss rate with performance additive A-PAM; assay type: physicochemical
Procedure: as §1, §2, §3

[6] = Oxidant (halogen) loss rate with performance additive C-Starch; assay type: physicochemical
Procedure: as §1, §2, §3

[7] = Table 9, extrapolated rate at 2 ppm (Table 8) divided by oxidant loss rate (Table 5)

## [Na+].[O-]Br [NaOBr, Sodium hypobromite]
[1]; [7]
  Ratio of Bactericidal Efficacy Rate to Oxidant Loss Rate, C-PAM: 0.008 log cfu/ml reduction per ppm
[1]; slimicide 2.0 ppm (as Cl2), C-PAM 4 ppm active, tap water, 37° C., pH about 8, 30 minutes
  Oxidant (Halogen) Loss Rate, C-PAM: 0.025 ppm/min
[2]; 20 ppm slimicide, log reduction divided by 30 minute contact time
  Bactericidal Efficacy Rate (log cfu/ml reduction per minute): 0.002 log cfu/ml reduction per minute
[2]; extrapolated from 20 ppm to 2 ppm assuming first order (one-tenth)
  Extrapolated Bactericidal Efficacy Rate (at 2 ppm of Slimicide) (log cfu/ml reduction per minute): 0.0002 log cfu/ml reduction per minute
[2]; procedure of Example 5, slimicide about 20 ppm (as Cl2), white water, 30 minutes
  Bactericidal Efficacy (log cfu/ml reduction in 30 minutes): 0.07 log cfu/ml reduction
[3]; [7]
  Ratio of Bactericidal Efficacy Rate to Oxidant Loss Rate, PAE: 0.002 log cfu/ml reduction per ppm
[3]; slimicide 2.0 ppm (as Cl2), PAE 100 ppm active, tap water, 37° C., pH about 8, 30 minutes
  Oxidant (Halogen) Loss Rate, PAE: 0.103 ppm/min
[4]; [7]
  Ratio of Bactericidal Efficacy Rate to Oxidant Loss Rate, AKD: 0.07 log cfu/ml reduction per ppm
[4]; slimicide 2.0 ppm (as Cl2), AKD 10 ppm active, tap water, 37° C., pH about 8, 30 minutes
  Oxidant (Halogen) Loss Rate, AKD: 0.003 ppm/min
[5]; [7]
  Ratio of Bactericidal Efficacy Rate to Oxidant Loss Rate, A-PAM: 0.007 log cfu/ml reduction per ppm
[5]; slimicide 2.0 ppm (as Cl2), A-PAM 50 ppm active, tap water, 37° C., pH about 8, 30 minutes
  Oxidant (Halogen) Loss Rate, A-PAM: 0.029 ppm/min
[6]; [7]
  Ratio of Bactericidal Efficacy Rate to Oxidant Loss Rate, C-Starch: 0.02 log cfu/ml reduction per ppm
[6]; slimicide 2.0 ppm (as Cl2), C-Starch 100 ppm active, tap water, 37° C., pH about 8, 30 minutes
  Oxidant (Halogen) Loss Rate, C-Starch: 0.010 ppm/min
